{"source": "patent US20130331331A1", "about": "“HEXAPEPTIDE WITH IMPROVED ACTIVITY IN THE REPAIR OF CELLULAR DNA OF DERMAL CELLS” (priority 2011, published 2013)", "type_in_all_cases": "cell-based, human", "key": {"[1]": {"test_system": "melanocytes strain 1505b", "assay": "Tyrosinase activity dose-response, strain 1505b", "description": "Dose-response experiments were carried out on another adult strain 102b which is shown in FIG. 6 and on the strain 1505b which is a melanocyte strain: melanocytes were treated with 0.001-10 nM CUV9990 or NDP-MSH, or 0.1-10 nM MSH for a total of 6 days, with the culture medium changed and fresh peptide added every other day. Cell numbers as well as tyrosinase activity were then determined. Tyrosinase activity was calculated first at activity/10^6 cells, and then as % of control. Twenty-four hours prior the end of the experiment, melanocytes received […] (0.7 μCi/ml medium). The conditioned medium from each dish was collected to be assayed for tyrosinase activity, and the cell numbers were determined using a Coulter Counter. Triplicate dishes were included in each group, and duplicate samples from each dish were assayed for tyrosinase activity. Each data point is the mean percent of control of 6 determinations/group±S.E."}, "[2]": {"test_system": "melanocyte strain 1505b", "assay": "Tyrosinase activity as a measure of stability / residual effect, strain 1505b", "description": "To determine the residual effect of CUV9900, as compared to NDP-MSH and α-MSH, on tyrosinase activity, melanocytes were treated with either CUV9900 or NDP-MSH at the concentrations previously described for a total of 3 days. Tyrosinase activity was measured at the end of the 3 days of treatment, and 2 and 4 days after maintenance of the melanocytes in the complete absence of any treatment.\n(§1) With continued reference to FIGS. 7, 8 and 9, to determine the stability of CUV9900 versus that of NDP-MSH and α-MSH, melanocytes were treated with 1 nM of each peptide, namely with CUV9900, NDP-MSH and α-MSH, for a total of 6 days, or with 1 nM peptides that were incubated for 5 hours at 37° C. prior to addition to the cultures, every other day, for a total of 6 days. Tyrosinase activity was measured at the end of treatment. In the experiments, cell number represents the mean percent of control of 3 determinations/group±SE, and tyrosinase activity data represent the mean percent of control of 6 determinations±S.E. It should be noted that for the sake of reproducibility the experiment of strain 1513c of FIG. 9 was performed once more 6 months later than the experiment of FIG. 7.\nMelanocytes were treated for 3 days with the designated concentrations of CUV9900, NDP-MSH, or MSH, then maintained in absence of peptides for 4 days. Tyrosinase activity was determined 3 days after treatment.\nTyrosinase activity as a measure of stability is shown in Tables 4 to 6 below, wherein Table 4 is based on data derived from FIG. 7, Table 5 is based on data derived from FIG. 9, and Table 6 is based on data derived from FIG. 8: […]"}, "[3]": {"test_system": "melanocyte strain 1513c", "assay": "Cell proliferation as a measure of stability, strain 1513c", "description": "as §1\nPeptides were incubated at 37 degrees Celsius for 5 hours and then split into groups. Cell proliferation was a measure of stability, whereby the experiments on strain 1513c were divided in period 1 and 2 under standard conditions.\nCell proliferation as a measure of stability is shown in Tables 1 to 3 below, wherein Table 1 is based on data derived from FIG. 7, Table 2 is based on data derived from FIG. 9, and Table 3 is based on data derived from FIG. 8: […]"}, "[4]": {"test_system": "melanocyte strain 1505b", "assay": "Cell proliferation as a measure of stability, strain 1505b"}, "[5]": {"test_system": "melanocytic strain 103c", "assay": "UV-induced generation of hydrogen peroxide (luminol), strain 103c", "settings": "1 nM, 105 mJ/cm^2 UV, 0, 30 and 45 minutes after irradiation", "from_the_text": "With reference to FIGS. 10 and 11, melanocytes were irradiated with a bank of FS 20 lamps, with 75% emission in the UVB, and 25% emission in the UVA spectra, with peak emission at 313 nm wavelength. Any emission of UVC rays from the UV source (FS 20 lamps) was blocked by Kodacel filter. Prior to irradiation, the culture medium was replaced by PBS, which was removed after UV exposure, and fresh medium added.\nMelanocytes were irradiated with 105 mJ/cm^2 UV, and treated immediately while in PBS with 0, 1 nM α-MSH or 1 nM CUV9900. Generation of hydrogen peroxide, representative of reactive oxygen species (ROS), was determined by measuring the luminescence of luminol at 0, 30, and 45 min after UV exposure. Triplicate dishes were included in each group, and duplicate samples from each dish were used for measurement of hydrogen peroxide at each time point. Each data point represents the mean of 6 determinations/group±S.E.\nIn the melanocytic strain 1505b of FIG. 10 and melanocytic strain 103c of FIG. 11, hydrogen peroxide generation was assessed at 0, 30 and 45 minutes after UV irradiation."}, "[6]": {"test_system": "melanocyte strain 103c", "assay": "UV-induced apoptosis by Annexin V staining, strain 103c", "settings": "1 nM, 4 days prior and 1 day following 105 mJ/cm^2 UV", "description": "With reference to FIGS. 12 and 13, melanocytes were maintained for the duration of the experiment in medium lacking bovine pituitary extract (BPE) to determine the survival effect of α-MSH or its analogs in the absence of the anti-apoptotic effect of TPA. Melanocytes were treated with 0, 1 nM α-MSH, 1 μM Forskolin, or 1 nM NDP-MSH or CUV9900 for 4 days prior to, and 24 h after exposure to a dose of 105 mJ/cm^2 UV, then stained for Annexin Va staining. The data are represented as percent increase above control, with triplicate dishes included in each group.\nComparison of the effect of CUV9900, NDP-MSH and MSH on the UV-induced apoptosis were made in the melanocyte strains 103c and melanocyte strain 1513c of FIGS. 12 and 13, respectively. Both strains were treated with 1 nM CUV9900, NDP and MSH, respectively for 4 days prior and 1 day following irradiation. Floating as well as attached cells were harvested and stained for Annexin V, and analyzed by flow cytometry."}}, "note": "Non-standard residues stand in square brackets, D forms with d. Nle = CCCC[C@H](N)C(=O)O", "data": [{"substance": "Ac-Nle-Glu His-D-Phe-Arg-Trp-NH2 (Ac-[Nle]EH[dF]RW-NH2; SMILES CCCC[C@H](NC(C)=O)C(=O)N[C@@H](CCC(=O)O)C(=O)N[C@@H](Cc1c[nH]cn1)C(=O)N[C@H](Cc1ccccc1)C(=O)N[C@@H](CCCNC(=N)N)C(=O)N[C@@H](Cc1c[nH]c2ccccc12)C(N)=O) [CUV9900, hexapeptide alpha-MSH analogue]", "values": [{"measurement": "effect on tyrosinase activity, comparison", "setting": "[1]", "result": "equivalent to that of NDP-MSH"}, {"measurement": "minimal effective dose, tyrosinase activity", "setting": "[1]; 6 days treatment", "result": 1, "unit": "pM"}, {"measurement": "superior tyrosinase activity in comparison to MSH", "setting": "[2]", "result": 18.7, "unit": "%"}, {"measurement": "superior tyrosinase activity in comparison to NDP-MSH", "setting": "[2]", "result": 32.1, "unit": "%"}, {"measurement": "residual effects on tyrosinase activity 4 days after peptide removal, CUV9900 vs MSH", "setting": "[2]; 0.1 nM CUV9900 vs 1 nM MSH", "result": "equal"}, {"measurement": "more stable than MSH (cell proliferation)", "setting": "[3]; strain 1513c", "result": 3.4, "unit": "%"}, {"measurement": "more stable than NDP-MSH (cell proliferation)", "setting": "[3]; strain 1513c", "result": 0.65, "unit": "%"}, {"measurement": "Cell proliferation (cell number), Mean", "setting": "[3]; strain 1513c [2], mean", "result": "119.9% of control"}, {"measurement": "more stable in comparison to MSH (cell proliferation)", "setting": "[4]", "result": 2.6, "unit": "%"}, {"measurement": "more stable than NDP-MSH (cell proliferation)", "setting": "[4]", "result": 10.16, "unit": "%"}, {"measurement": "Cell proliferation (cell number), column 2", "setting": "[4]; 1 nM", "result": "120% of control"}, {"measurement": "Cell proliferation (cell number), column 3", "setting": "[4]; 1 nM", "result": "108% of control"}, {"measurement": "UV-induced hydrogen peroxide generation", "setting": "[5]", "result": "significant reduction of UV-induced hydrogen peroxide generation"}, {"measurement": "anti-apoptotic effect (Annexin V), comparison", "setting": "[6]", "result": "equal anti-apoptotic effect than NDP-MSH"}]}]}
